What was measured:
[1] = system: testosterone-stimulated sebum secretion; test: Inhibition of sebum production in the rat; format: in vivo, rat (castrated male); conditions: 100 μg/rat p.o., daily for 14 days
Method: (E) The activity of the compounds I on sebum secretion in rats was determined according to the following procedure. Male rats of approximately 50-60 g body weight were castrated at the age of 21-22 days. One week after this operation the rats were washed in a cleansing solution in order to remove sebum which was excreted prior to the test period. Only the carrier materials used were administered to one group of rats. A further group of rats also simultaneously received 100 μg of testosterone propionate in 0.2 ml of sesame oil per rat and day. To a further group of rats there were administered daily per rat 100 μg of testosterone propionate in 0.2 ml of sesame oil subcutaneously and the test compounds in various dosages in 0.2 ml of propylene glycol orally. The rats were thus-treated for 14 days. On the 15th day the sebum from the skin surface and the pelt was removed by immersing the entire body of the test animals in a determined volume of acetone and bathing therein for 2 minutes. An aliquot of the solvent bath was evaporated and the solid residue was determined gravimetrically. The inhibition of the testosterone-stimulated increase in the serum secretion in comparison to the corresponding values from rats treated only with testosterone propionate was used as the measurement for the activity.

[2] = system: keratin-filled utriculi of the rhino mouse; test: Anti-keratinizing activity in the rhino mouse; format: in vivo
From the text: (A) The antikeratinizing activity can be determined on the rhino mouse model according to the following procedure. The skin of the rhino mouse is characterized by the presence of keratin-filled utriculi of the epidermis and subcutaneous cysts, both of which are derived from hair follicles. The administration of retinoids leads to a hyperproliferation of the epidermis and of the epithelial lining of the utriculi. The thickening of the epidermis and the reduction in the size of the utriculi lead to a normalization of the altered structure of the epithelial layer. The daily topical application of 0.1 ml/cm^2 skin of the rhino mouse of a 3% acetone solution of an active test compound over a period of 3 weeks or the thrice weekly oral administration in arachis oil over a period of weeks leads to a significant proliferation of the epidermis and a striking reduction of the keratin-filled utriculi.

[3] = system: squamous metaplasia of the vaginal epithelium; test: Antimetaplastic activity in the rat (hormone-induced squamous metaplasia of the vaginal epithelium); format: in vivo, Female Holtzmann rats; conditions: oral; all-trans-retinoic acid = 1; from average effective dosages (Behrens and Karber)
From the text: (D) The antimetaplastic activity can also be determined in rats according to the following method. Female Holtzmann rats weighing approximately 100 g are ovarectomized under Thiogenal narcosis after an adaptation period of 8 days and are used in the test after a further 14 days. In each case two animals are placed in a cage with free access to feed which contains approximately 2000 IU of vitamin A determined analytically. Prior to the oral administration of the test compound the animals are treated subcutaneously each day on 6 successive days with 1 μg of estradiol benzoate and 250 μg of testosterone propionate dissolved in 0.1 ml of sesame oil. […] 2 days after the oral administration of the test substance the result of the reaction is again read off on the vaginal epithelium. The area method according to Behrens and Karber is employed to calculate the average effective dosages.

[4] = system: transplantable chondrosarcoma of the rat; test: Activity on transplantable chondrosarcoma of the rat; format: in vivo, rat (albino rats); conditions: five times per week for 24 days
Method: (C) Furthermore, the activity on tumours can be determined on the transplantable chondrosarcoma of the rat according to the following method. The solid tumour of a donor animal is finely minced and suspended in phosphate buffer/sodium chloride solution. 0.5 ml of the 30% tumour suspension is implanted subcutaneously into albino rats.
The transplanted rats are divided into test groups of in each case 8 animals. The test compounds are suspended in arachis oil and administered orally five times per week for 24 days. The tumours are excised and weighed on day 24. The results are expressed in the quotient C/T which is calculated as follows: [formula]

[5] = system: chemically-induced breast tumours; test: Prophylaxis of chemically-induced breast tumours (dimethylbenz(a)anthracene); format: in vivo, Female Sprague-Dawley rats; conditions: 11 weeks
Method: (B) The activity in the prevention of chemically-induced breast tumours can be determined according to the following procedure. Female Sprague-Dawley rats are kept under temperature-controlled and light-controlled conditions, with free access to drinking water and feed. At the age of 50 days 15 mg of dimethylbenz(a)anthracene disolved in arachis oil are administered to each rat by means of a probang. The treatment with the test compounds begins 1 day after the administration of the carcinogen. The body weights of the test animals are recorded and the tumours are palpated weekly and measured with a vernier caliper. The volumes are calculated according to the formula [formula] in which D is the larger diameter of the tumour ellipsoid and d is the smaller diameter of the tumour ellipsoid. After 11 weeks the test is terminated and evaluated. In this test there are used in addition to 30 control animals, which receive exclusively normal feed the following two groups of test animals:
1. 33 rats to which are administered daily 30 mg/kg of test compound mixed with the feed.
2. 36 rats to which are administered daily 90 mg/kg of test compound mixed with the feed.

Row | Structure (SMILES) | Inhibition of testosterone-stimulated sebum secretion [1] | Diameter of the utriculus ([2]; 133 mg/kg p.o.) | Reduction (of the diameter of the utriculus) ([2]; 133 mg/kg p.o.) | Relative activity [3] | Diameter of the utriculus ([2]; 400 mg/kg p.o.) | Reduction (of the diameter of the utriculus) ([2]; 400 mg/kg p.o.) | Quotient C/T of tumour weight of the untreated control animals and of the treated animals ([4]; 40 mg/kg p.o.) | Quotient C/T of tumour weight of the untreated control animals and of the treated animals ([4]; 120 mg/kg p.o.) | Average number of tumours per rat ([5]; 30 mg/kg p.o. daily in feed) | Average tumour volume per rat in mm^3 [% of controls] ([5]; 30 mg/kg p.o. daily in feed) | Rats with tumours ([5]; 30 mg/kg p.o. daily in feed) | Average number of tumours per rat ([5]; 90 mg/kg p.o. daily in feed) | Average tumour volume per rat in mm^3 [% of controls] ([5]; 90 mg/kg p.o. daily in feed) | Rats with tumours ([5]; 90 mg/kg p.o. daily in feed)
1 | CCCCCCCCc1cc2c(cc1C(C)=Cc1ccccc1)C(C)(C)CCC2(C)C [g, 1,2,3,4-tetrahydro-1,1,4,4-tetramethyl-6-(α-methylstyryl)-7-octylnaphthalene] | 71% | – | – | – | – | – | – | – | – | – | – | – | – | –
2 | C/C(=C\c1ccc(I)cc1)c1ccc2c(c1)C(C)(C)CCC2(C)C [e, (E)-6-[p-iodo-α-methylstyryl]-1,2,3,4-tetrahydro-1,1,4,4-tetramethylnaphthalene] | 71% | – | – | – | – | – | – | – | – | – | – | – | – | –
3 | C/C(=C\c1ccccc1)c1ccc2c(c1)C(C)(C)CC2(C)C [d, 1,1,3,3-tetramethyl-5-[(E)-α-methylstyryl]indane] | – | 125 μm | 27% | – | – | – | – | – | – | – | – | – | – | –
4 | CC1=C(/C=C/C(C)=C/C=C/C(C)=C/C(=O)O)C(C)(C)CCC1 [all-Trans-retinoic acid, reference compound] | – | – | – | 1 | – | – | – | – | – | – | – | – | – | –
5 | COc1ccc(/C=C(\C)c2ccc3c(c2)C(C)(C)CCC3(C)C)cc1 [c, 1,2,3 4-tetrahydro-6-[(E)-p-methoxy-α-methylstyryl]-1,1,4,4-tetramethylnaphthalene] | – | 91 μm | 27% | 1.04 | 61 μm | 51% | 2.0 | 24.0 | 56 % of controls | 78 % of controls | 92 % of controls | 43 % of controls | 32 % of controls | 85 % of controls
6 | C/C(=C\c1ccc(Cl)cc1)c1ccc2c(c1)C(C)(C)CCC2(C)C [f, (E)-6-[p-chloro-α-methylstyryl]-1,2,3,4-tetrahydro-1,1,4,4-tetramethylnaphthalene] | – | – | – | – | – | – | – | 1.6 | – | – | – | – | – | –
7 | C/C(=C\c1ccc(Br)cc1)c1ccc2c(c1)C(C)(C)CCC2(C)C [b, (E)6-(p-Bromo-methylstyryl)-1,2,3,4-tetrahydro-1,1,4,4-tetramethylnaphthaene] | 65% | – | – | 0.77 | 131 μm | 19% | – | 1.6 | 87 % of controls | 90 % of controls | 106 % of controls | 87 % of controls | 43 % of controls | 99 % of controls
8 | C/C(=C\c1ccc(F)cc1)c1ccc2c(c1)C(C)(C)CCC2(C)C [a, (E)-6-(p-fluoro-α-methylstyryl)-1,2,3,4-tetrahydro-1,1,4,4-tetramethylnaphthalene] | 67% | – | – | 0.87 | 117 μm | 21% | – | – | 47 % of controls | 22 % of controls | 72 % of controls | 42 % of controls | 22 % of controls | 69 % of controls
